Measurements from ChEMBL document CHEMBL1146739, “Alpha,alpha-trehalose derivatives bearing guanidino groups as inhibitors to HIV-1 Tat-TAR RNA interaction in human cells” (Bioorg Med Chem Lett, 2004).

What follows are compounds tested on Nucleic Acid (assay: Inhibitory activity against TatTAR RNA interaction in human cells by Tat-dependent HIV-1 long terminal repeats (LTR)-driven chloramphenicol acetyltransferase assay at 3 uM concentration; decreased from 69.5 to 44.2).
Type: cell-based
Set-up: unit not given here
With `N=C(N)NCC(=O)NCC1OC(OC2OC(CNC(=O)CNC(=N)N)C(O)C(O)C2O)C(O)C(O)C1O` (centres undefined) the Activity was 44.2.
Work on `N=C(N)NCCCC(=O)NCC1OC(OC2OC(CNC(=O)CCCNC(=N)N)C(O)C(O)C2O)C(O)C(O)C1O` (centres undefined) yielded an Activity of 44.2.
Work on `NC(N)=NCCCC(N)C(=O)NCC1OC(OC2OC(CNC(=O)C(N)CCCN=C(N)N)C(O)C(O)C2O)C(O)C(O)C1O` (centres undefined) yielded an Activity of 44.2.
Work on `N=C(N)NCC1OC(OC2OC(CNC(=N)N)C(O)C(O)C2O)C(O)C(O)C1O` (centres undefined) yielded an Activity of 44.2.
